Measurements: patent publication US20260158023A1, “APOMORPHINE FOR TREATING OR IMPROVING POST-TRAUMATIC STRESS DISORDER” (priority 2024, published 2026)

How the values were obtained:
[1] = system: one-time persistent stress post-traumatic stress model; assay: stimulus identification fear conditioning experiment in one-time persistent stress model; format: in vivo, mice; conditions: for fear response to safety stimuli: one-time persistent stress model; for CS-freezing: one week after one-time persistent stress
Description: (§1) C57BL/6 mice were stressed by restricting movement for 2 hours (restraint stress), and one week later, two sounds were simultaneously applied: one with sound-only (safety stimuli) and the other with sound paired with electrical stimulation (fear stimuli). The next day, generalization, the freezing level to the safety stimulus (CS-), which is one of the indicators of post-traumatic stress disorder, was measured through fear responses to the two sounds (stimulus identification fear conditioning experiment).
(§2) In order to strengthen the fear response to safety stimuli, a one-time persistent stress was introduced to apply stronger stress. The one-time persistent stress consists of the existing 2-hour restraint stress, 10-minute forced swim test, and 5-minute ether anesthesia.
We observed the fear response in a stimulus identification fear conditioning experiment when apomorphine (1 ug/kg, 3 ug/kg) was administered one week after a one-time persistent stress, which is a more powerful post-traumatic stress model.
In order to compare the effect of apomorphine with that of the existing treatment, paroxetine, a stimulus identification fear conditioning experiment was conducted after stress was applied under the same conditions.

[2] = system: one-time persistent stress post-traumatic stress model; assay: open field test in one-time persistent stress model; format: in vivo, mice; conditions: after apomorphine administration
From the text: as §2
The level of anxiety symptoms can be determined through the time spent in the center in the open field test.

normal mice (drd4 WT) = assay: stimulus identification fear conditioning experiment in one-time persistent stress model, normal mice (drd4 WT); format: in vivo; conditions: as in Example 2.3
[3] = system: one-time persistent stress post-traumatic stress model; assay: elevated plus maze test in one-time persistent stress model; format: in vivo, mice; conditions: after apomorphine administration
[4] = system: mice lacking drd4 receptors (drd4 KO); assay: stimulus identification fear conditioning experiment in one-time persistent stress model, mice lacking drd4 receptors (drd4 KO); format: in vivo; conditions: as in Example 2.3
[5] = system: restraint stress post-traumatic stress model (C57BL/6 mice); assay: stimulus identification fear conditioning experiment in restraint stress model of post-traumatic stress disorder; format: in vivo; conditions: administered 30 minutes before the fear test
Description: as §1
To confirm the effect of apomorphine on the post-traumatic stress model according to concentration, apomorphine of different concentrations was administered 30 minutes before the fear test.

Row | SMILES | fear response to safety stimuli ([1]; 5 ug/kg) | fear response to safety stimuli ([1]; all concentrations: 150 ug/kg, 300 ug/kg and 500 ug/kg) | mean distance in the open field test (overall walking function) [2] | time spent in the center in the open field test [2] | fear response compared to vehicle administration (normal mice (drd4 WT)) | time spent in the open arm in the elevated plus maze test [3] | fear response between apomorphine administration and vehicle administration [4] | CS-freezing ([1]; 1 ug/kg) | CS-freezing ([1]; 3 ug/kg) | CS-freezing (freezing level to the safety stimulus) ([5]; 1 ug/kg) | CS-freezing (freezing level to the safety stimulus) ([5]; 3 ug/kg)
1 | Fc1ccc([C@@H]2CCNC[C@H]2COc2ccc3c(c2)OCO3)cc1 [paroxetine] | no significant difference | reduced |  |  |  |  |  |  |  |  | 
2 | CN1CCc2cccc3c2[C@H]1Cc1ccc(O)c(O)c1-3 [apomorphine, Apomorphine] |  |  | no difference | significantly increased | decreased | significantly increased | no difference | decreased | did not change | decreased | did not change
